These results are taken from BindingDB's records for doi:10.1016/S0006-291X(02)00356-X (Katholieke Universiteit Leuven, 2002).

This assay addresses T1, Promotilin (Homo sapiens, UniProt P12872).
T1 sequence (P12872 whole entry): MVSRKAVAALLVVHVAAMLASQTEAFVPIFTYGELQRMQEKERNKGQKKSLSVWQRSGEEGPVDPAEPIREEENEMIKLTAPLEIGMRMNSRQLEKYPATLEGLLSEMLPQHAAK
In the case of `CC[C@H]1OC(=O)[C@H](C)[C@@H](O[C@H]2C[C@@](C)(OC)[C@@H](O)[C@H](C)O2)[C@H](C)[C@@H](O[C@@H]2O[C@H](C)C[C@H](N(C)C)[C@H]2O)[C@@]2(C)CC(C)=C(O2)[C@H](C)[C@@H](O)[C@]1(C)O` [Erythromycin-A enol ether], the Ki is 0.00832 µM.
The value for `CC[C@H]1OC(=O)[C@H](C)[C@@H](O[C@H]2C[C@@](C)(OC)[C@@H](O)[C@H](C)O2)[C@H](C)[C@@H](O[C@@H]2O[C@H](C)C[C@H](N(C)C)[C@H]2O)C2(C)CC(C)=C(O2)[C@H](C)[C@@H](O)[C@H]1C` (some centres undefined) [Erythromycin-B enol ether] was 0.00759 µM; that for `CC[C@H]1OC(=O)[C@H](C)[C@@H](O[C@H]2C[C@@](C)(OC)[C@@H](O)[C@H](C)O2)[C@H](C)[C@@H](O[C@@H]2O[C@H](C)C[C@H](N(C)C)[C@H]2O)[C@](C)(O)C[C@@H](C)C(=O)[C@H](C)[C@@H](O)[C@H]1C` [Erythromycin-B] was 0.145 µM.
Consider `CC[C@H]1OC(=O)[C@H](C)[C@@H](O[C@H]2C[C@@](C)(OC)[C@@H](O)[C@H](C)O2)[C@H](C)[C@@H](O[C@@H]2O[C@H](C)C[C@H](N(C)CC)[C@H]2O)[C@](C)(O)C[C@@H](C)C(=O)[C@H](C)[C@@H](O)[C@]1(C)O` [N-ethyl, N-Methyl Erythromycin-A], for which the affinity corresponds to a Ki of 0.24 µM.
Consider `CC[C@H]1OC(=O)[C@H](C)[C@@H](O[C@H]2C[C@@](C)(OC)[C@@H](O)[C@H](C)O2)[C@H](C)[C@@H](O[C@@H]2O[C@H](C)C[C@H](N(C)CC)[C@H]2O)[C@@]2(C)CC(C)=C(O2)[C@H](C)[C@@H](O)[C@]1(C)O` [N-ethyl, N-methyl Erythromycin-A enol ether], for which the inhibitory constant (Ki) is 0.00603 µM. Against the preceding compound, the Ki is about 40-fold lower.
Compound `CC[C@H](C)[C@H](NC(=O)[C@@H]1CCCN1C(=O)[C@@H](NC(=O)[C@@H](N)Cc1ccccc1)C(C)C)C(=O)N[C@@H](Cc1ccccc1)C(=O)N[C@H](C(=O)N[C@@H](Cc1ccc(O)cc1)C(=O)NCC(=O)N[C@@H](CCC(=O)O)C(=O)N[C@@H](CC(C)C)C(=O)N[C@@H](CCC(N)=O)C(=O)N[C@@H](CCCN=C(N)N)C(=O)N[C@@H](CC(C)C)C(=O)N[C@@H](CCC(N)=O)C(=O)N[C@@H](CCC(=O)O)C(=O)N[C@@H](CCCCN)C(N)=O)[C@@H](C)O` [[leu13]pMOT(1-16)] registered a Ki of 0.00214 µM. This Ki lies about 2.8-fold lower than the previous one.
On to “H-FVAIFTYGELQRLQ-NH2 [[ala3,leu13]pMOT(1-14)]”, for which the inhibition constant Ki turned out to be 0.00132 µM.
“H-FVPAFTYGELQRLQ-NH2 [[ala4,leu13]pMOT(1-14)]”: the inhibition constant (Ki) worked out at 2.57 µM.
For the compound “H-FVPIATYGELQRLQ-NH2 [[ala5,leu13]pMOT(1-14)]”, the Ki was found to be 0.0288 µM.
H-FVPIF-NH2 [[leu13]pMOT(1-5)]: affinity was put at a Ki of 8.91 µM.
The value for “H-FVPIFAYGELQRLQ-NH2 [[ala6,leu13]pMOT(1-14)]” was 0.0468 µM; that for “H-FVPIFTAGELQRLQ-NH2 [[ala7,leu13]pMOT(1-14)]” was 1.45 µM.
The figure for H-FVPIFTY-NH2 [[leu13]pMOT(1-7)] is 6.92 µM; for “H-FVPIFTYAELQRLQ-NH2 [[ala8,leu13]pMOT(1-14)]” it is 0.0363 µM.
The figure for “H-FVPIFTYGALQRLQ-NH2 [[ala9,leu13]pMOT(1-14)]” is 0.0759 µM; for H-FVPIFTYGE-NH2 [[leu13]pMOT(1-9)] it is 4.07 µM; for “H-FVPIFTYGEAQRLQ-NH2 [[ala10,leu13]pMOT(1-14)]” it is 0.00501 µM.
“H-FVPIFTYGELARLQ-NH2 [[ala11,leu13]pMOT(1-14)]”: the inhibition constant Ki was determined as 0.00457 µM.
The value for H-FVPIFTYGELQ-NH2 [[leu13]pMOT(1-11)] was 0.0891 µM; that for “H-FVPIFTYGELQALQ-NH2 [[ala12,leu13]pMOT(1-14)]” was 0.00631 µM; that for “H-FVPIFTYGELQRAQ-NH2 [[ala13,leu13]pMOT(1-14)]” was 0.00724 µM.
“H-FVPIFTYGELQRLA-NH2 [[ala14,leu13]pMOT(1-14)]” returned a Ki of 0.00708 µM.
The value for “H-FVPIFTYGELQRLQEKERN-NH2 [[leu13]pMOT(1-19)]” was 0.00098 µM; that for “H-FVPIFTYGELQRLQEKERNKGQ-OH [[leu13]pMOT(1-22)]” was 0.001 µM.

For orientation: Ki means the equilibrium dissociation constant of an inhibitor or competing ligand from its target. The low end stands for tighter binding, the high end for weaker binding.
